Measured values: patent US20210087217A1, “NUCLEOTIDE HEMI-SULFATE SALT FOR THE TREATMENT OF HEPATITIS C VIRUS” (Atea Pharmaceuticals, Inc., priority 2017, published 2021)

Key:
[1] = target: human mitochondrial RNA-dependent RNA polymerase (POLRMT) (Homo sapiens, UniProt O00411); test: Incorporation of nucleotide analog triphosphates by human mitochondrial RNA polymerase; format: biochemical
Protocol: The incorporation of these analogs by human mitochondrial RNA-dependent RNA polymerase (POLRMT) were determined according to Arnold et al. (Sensitivity of Mitochondrial Transcription and Resistance of RNA Polymerase II Dependent Nuclear Transcription to Antiviral Ribonucleotides. PLoS Pathog., 2012, 8, e1003030).

[2] = Plasma profiles of Compound 2 metabolites in rats; settings: male, Sprague-Dawley, rat, plasma, po, 500 mg/kg
Protocol: The results for a single 500 mg/kg dose in rats is shown in FIG. 17 and the results for a single 30, 100, or 300 mg/kg dose in monkeys is shown in FIG. 18.

[3] = Plasma profiles of Compound 2 metabolites in monkeys; format: in vivo, cynomolgus monkeys; settings: cynomolgus monkey, plasma, po
[4] = Single ascending dose study of Compound 2 in healthy volunteers (Part A): safety, tolerability, pharmacokinetic; format: in vivo, human; settings: both sexes, human, plasma, oral; for concentration at 24 h: read-out: C24h
Protocol: Compound 2 was tested in a single ascending dose (SAD) study to measure its safety, tolerability, and pharmacokinetic in healthy subjects (Part A). Part A was a randomized, double-blind, placebo-controlled SAD study. Healthy subjects in Part A received a single dose of Compound 2 or placebo in the fasting state. Subjects were confined to the clinic from Day −1 to Day 6.
Dosing in each cohort was staggered such that 2 subjects (1 active:1 placebo) were evaluated for 48 hours after dosing before the remainder of the cohort was dosed. Each cohort received Compound 2 in ascending order. Dosing of sequential cohorts occurred based on review of available safety data (through Day 5) and plasma pharmacokinetic data (through 24 h) of the prior cohort.
As pharmacokinetic and safety data emerged from prior cohorts, doses evaluated in Cohorts 3a-4a were adjusted by increments no more than 100 mg.
Healthy volunteers in the Part A portion of the study were male and female subjects between the ages of 18 and 65. Active and placebo recipients were pooled within each Part A cohort to preserve the study blind.
(§1) Pharmacokinetic of Compound 1 and nucleoside metabolite 1-7 were measured following the single dose of Compound 2. […] Values are reported as mean±SD, except or Tmax where median (range) is reported.

[5] = Single ascending dose study of Compound 2 in GT1-HCV infected patients (Part B): safety, tolerability, pharmacokinetic; format: in vivo, human; settings: human; for Cmax / AUC / half-life / Tmax: in vivo; for Cmax / AUC / half-life / concentration at 24 h: GT1-HCV infected patients, mean±SD; for concentration at 24 h: plasma, oral, read-out: C24h
Protocol: Subjects in Part B received a single dose of Compound 2 in the fasting state. Patients were confined to the clinic from Day −1 to Day 6.
Part B was initiated after the safety (through Day 5) and plasma pharmacokinetic (through 24 h) data review from Cohort 3a in Part A. Available safety data (through Day 5) and pharmacokinetic data (through 24 h) was reviewed for the first cohort in Part B (Cohort 1b) before enrolling subsequent Part B cohorts. Subsequent Part B cohorts were only dosed following review of available safety and pharmacokinetic data from the respective doses in Part A as well as available safety (through Day 5) from the prior Part B cohorts.
Patients infected with HCV were treatment-naïve, non-cirrhotic GT1-infected subjects with a viral load of ≥5 log10 IU/mL.
as §1
Plasma exposure of Compound 1 was dose-related while exposure of metabolite 1-7 was dose-proportional.

[6] = sofosbuvir 400 mg QD; cited from earlier work
HCV RNA (GT1a HCV) = settings: after 1 day of 400 mg monotherapy, GT1a HCV-infected subjects; cited from earlier work
[7] = incorporation by human mitochondrial RNA polymerase
[8] = 100 mg, Compound 2 100 mg, based on 24-hr profile
[9] = 300 mg, Compound 2 300 mg (first 300 mg line)
[10] = 300 mg, Compound 2 300 mg (first 300 mg line), based on 24-hr profile
[11] = 300 mg, Compound 2 300 mg (second 300 mg line)

Chain of human mitochondrial RNA-dependent RNA polymerase (POLRMT) (O00411 42-1230): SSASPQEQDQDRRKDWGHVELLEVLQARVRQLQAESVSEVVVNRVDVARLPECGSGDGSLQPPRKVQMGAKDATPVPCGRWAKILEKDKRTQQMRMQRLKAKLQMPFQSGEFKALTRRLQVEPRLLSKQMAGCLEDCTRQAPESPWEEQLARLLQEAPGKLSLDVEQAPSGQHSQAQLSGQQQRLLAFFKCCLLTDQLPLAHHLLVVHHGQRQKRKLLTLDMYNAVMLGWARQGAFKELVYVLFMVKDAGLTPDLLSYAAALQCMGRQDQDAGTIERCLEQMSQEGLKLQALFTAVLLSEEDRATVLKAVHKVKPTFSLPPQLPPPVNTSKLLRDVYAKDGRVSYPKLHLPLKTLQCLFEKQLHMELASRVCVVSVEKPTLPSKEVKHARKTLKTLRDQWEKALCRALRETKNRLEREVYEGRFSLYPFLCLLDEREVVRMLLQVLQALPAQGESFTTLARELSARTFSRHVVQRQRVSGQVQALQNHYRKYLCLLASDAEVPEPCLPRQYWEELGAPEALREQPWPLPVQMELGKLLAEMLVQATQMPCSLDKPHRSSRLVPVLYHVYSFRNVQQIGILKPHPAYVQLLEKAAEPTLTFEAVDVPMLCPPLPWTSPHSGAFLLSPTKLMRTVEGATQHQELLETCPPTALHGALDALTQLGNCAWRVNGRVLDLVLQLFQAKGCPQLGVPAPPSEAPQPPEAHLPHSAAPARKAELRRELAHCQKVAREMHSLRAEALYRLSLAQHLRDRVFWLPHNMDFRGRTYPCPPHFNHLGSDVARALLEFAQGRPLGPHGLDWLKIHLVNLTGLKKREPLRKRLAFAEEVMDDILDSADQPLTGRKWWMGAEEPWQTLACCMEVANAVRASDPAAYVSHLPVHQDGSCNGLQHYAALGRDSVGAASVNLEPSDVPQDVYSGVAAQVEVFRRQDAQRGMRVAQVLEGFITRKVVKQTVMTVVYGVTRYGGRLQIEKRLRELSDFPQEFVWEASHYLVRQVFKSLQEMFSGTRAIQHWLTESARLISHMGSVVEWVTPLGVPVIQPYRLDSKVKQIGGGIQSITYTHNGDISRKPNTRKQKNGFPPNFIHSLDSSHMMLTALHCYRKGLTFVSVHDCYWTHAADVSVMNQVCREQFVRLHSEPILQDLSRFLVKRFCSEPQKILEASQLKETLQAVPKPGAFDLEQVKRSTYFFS

SMILES: C[C@@]1(F)[C@H](O)[C@@H](COP(=O)(O)OP(=O)(O)OP(=O)(O)O)O[C@H]1n1cnc2c(=O)[nH]c(N)nc21 [Metabolite 1-6]
- Incorporation of active triphosphate by human mitochondrial RNA polymerase [1]: poorlyincorporated
- Relative Efficiency ([1]; (Kpol/Kd,app)analog nucleotide/(Kpol/Kd,app)natural nucleotide): 2.2 × 10^−6
- Kpol [1, 7]: 0.0017 s⁻¹
- Kpol/Kd,app [1, 7]: 8.3 M⁻¹ s⁻¹
- Kd ([1]; incorporation by human mitochondrial RNA polymerase, read-out: Kd,app): 204 µM

SMILES: C[C@@]1(F)[C@H](O)[C@@H](CO)O[C@H]1n1cnc2c(=O)[nH]c(N)nc21 [Metabolite 1-7, 2-amino-9-((2R,3R,4R,5R)-3-fluoro-4-hydroxy-5-(hydroxymethyl)-3-methyltetrahydrofuran-2-yl)-1,9-dihydro-6H-purin-6-one]
- AUC(0-t) [2]: 9640 ng·h/mL
- Cmax [2]: 541 ng/mL
- Tmax [2]: 6 to 8 h
- half-life [2]: 15.3 h
- AUC(0-t) ([3]; 30 mg/kg): 1620 ng·h/mL
- Cmax ([3]; 30 mg/kg): 42.5 ng/mL
- Tmax ([3]; 30 mg/kg): 12 to 24 h
- half-life ([3]; 30 mg/kg): 11.5 h
- AUC(0-t) ([3]; 100 mg/kg): 3030 ng·h/mL
- Cmax ([3]; 100 mg/kg): 131 ng/mL
- half-life ([3]; 100 mg/kg): 15 h
- AUC(0-t) ([3]; 300 mg/kg): 3660 ng·h/mL
- Cmax ([3]; 300 mg/kg): 93.6 ng/mL
- Tmax ([3]; 300 mg/kg): 4 to 24 h
- half-life ([3]; 300 mg/kg): 18.8 h
- AUC ([4]; 50 mg): 285 ± 69.4 ng·h/mL
- Cmax ([4]; 50 mg): 27.9 ± 5.62 ng/mL
- Tmax ([4]; 50 mg): 3.5 h
- half-life ([4]; 50 mg): 7.07 ± 4.59 h
- concentration at 24 h ([4]; 50 mg): 2.28 ± 0.95 ng/mL
- AUC ([4]; 100 mg): 663 ± 242 ng·h/mL
- Cmax ([4]; 100 mg): 56.6 ± 14 ng/mL
- half-life ([4]; 100 mg): 17.7 ± 14.7 h
- concentration at 24 h ([4]; 100 mg): 4.45 ± 1.87 ng/mL
- AUC ([4]; 200 mg): 1520 ± 497 ng·h/mL
- Cmax ([4]; 200 mg): 111 ± 38.8 ng/mL
- half-life ([4]; 200 mg): 15.9 ± 7.95 h
- concentration at 24 h ([4]; 200 mg): 13.7 ± 5.09 ng/mL
- AUC ([4]; 400 mg): 2340 ± 598 ng·h/mL
- Cmax ([4]; 400 mg): 153 ± 49.4 ng/mL
- half-life ([4]; 400 mg): 15.6 ± 6.37 h
- concentration at 24 h ([4]; 400 mg): 23.5 ± 6.31 ng/mL
- Cmax ([5]; 100 mg, Compound 2 100 mg): 50.2 ± 15.4 ng/mL
- AUC [5, 8]: 538 ± 103 ng·h/mL
- half-life [5, 8]: 8.4 ± 4.3 h
- Tmax ([5]; 100 mg, Tmax): 6 h
- Tmax ([5]; 300 mg): 4.0 (3.0-6.0) h
- Cmax [5, 9]: 96.9 ± 38.9 ng/mL
- AUC [5, 10]: 1130 ± 273 ng·h/mL
- half-life [5, 10]: 8.1 ± 2.4 h
- AUC [5, 11]: 1420 ± 221 ng·h/mL
- Cmax [5, 11]: 123 ± 16.6 ng/mL
- Tmax ([5]; 300 mg, Tmax): 6 h
- AUC ([5]; 400 mg, Compound 2 400 mg): 2130 ± 120 ng·h/mL
- Cmax ([5]; 400 mg, Compound 2 400 mg): 160 ± 36.7 ng/mL
- half-life ([5]; 400 mg, Compound 2 400 mg): 11.6 ± 1.21 h
- AUC ([5]; 600 mg, Compound 2 600 mg): 2180 ± 116 ng·h/mL
- Cmax ([5]; 600 mg, Compound 2 600 mg): 198 ± 19.3 ng/mL
- concentration at 24 h ([5]; 100 mg, Compound 2 100 mg): 3.6 ± 0.4 ng/mL
- concentration at 24 h [5, 9]: 10.9 ± 3.51 ng/mL
- concentration at 24 h [5, 11]: 18 ± 8.83 ng/mL
- concentration at 24 h ([5]; 400 mg, Compound 2 400 mg): 22.5 ± 3.29 ng/mL
- concentration at 24 h ([5]; 600 mg, Compound 2 600 mg): 25.8 ± 4.08 ng/mL

SMILES: CC(C)OC(=O)[C@H](C)N[P@](=O)(OC[C@H]1O[C@@H](n2ccc(=O)[nH]c2=O)[C@](C)(F)[C@@H]1O)Oc1ccccc1 [sofosbuvir]
- Steady-state trough concentration (C24,ss) of the nucleoside metabolite [6]: approximately 100 ng/mL
- HCV RNA reduction (HCV RNA (GT1a HCV)): 2 log10 IU/mL
